Results published in article PMC9135253, “Potential of phenothiazines to synergistically block calmodulin and reactivate PP2A in cancer cells” (PLoS ONE, 2022).
Several values for one entry are separate records, joined by “and”; a condition that tells them apart may be missing. Equal values may be shown once. Read-outs that look alike come from different tables or passages of the source.

Tests used:
Format in all cases: cell-based
[1] = tested on: NCI-H358 (KRAS-G12C) 3D spheroids; assay: 3D spheroid formation assay (alamarBlue), NCI-H358; details: read-out: IC50 values
Protocol: (§1) 3D spheroid formation assays were performed in 96-well low-attachment, suspension culture plates (cat. no. 655185, Cellstar, Greiner Bio-One) under serum free conditions. About 1000 cells per well were seeded in 50 μL RPMI medium (cat. no. 52400–025, Gibco, ThermoFisher Scientific) containing 0.5% (v/v) MethoCult (cat. no. SF H4636, Stemcell technologies), 1X B27 (cat. no. 17504044, Gibco, ThermoFisher Scientific), 25 ng/mL EGF (cat. no. E9644, Sigma-Aldrich) and 25 ng/ mL FGF (cat. no. RP-8628, ThermoFisher Scientific). Cells were cultured for 3 days and then treated with compounds or vehicle control (DMSO 0.1% (v/v) in growth medium) for another 3 days. The cells were supplemented with fresh growth medium on the third day together with the drug treatment. Spheroid formation efficiency was analyzed by alamarBlue assay reagent (cat. no. DAL1100, ThermoFisher Scientific).
(§2) A 10% (v/v) final volume of alamarBlue reagent was added to each well of the plate and incubated for 4 h at 37°C. Then the fluorescence intensity (λexcitation 560 ± 5 nm and λemission 590 ± 5 nm) was measured using the FLUOstar OPTIMA plate reader (BMG Labtech, Germany).
(§3) (A) Heatmap of ATARiS gene sensitivity scores of two KRAS dependent cell lines (NCI-H358 and MDA-MB-231) and a BRAF dependent cell line (A375). Negative values (shaded red) indicate sensitivity of the cell line proliferation to the knockdown of shown genes, whereas positive scores (shaded blue) indicate insensitivity. (B) IC50 values for indicated compounds in Ras pathway mutant cell lines NCI-H358, MDA-MB231 and A375 grown as 3D spheroids under serum free conditions. […] Statistical comparisons were done using the average values across all three cell lines. […] Positive scores indicate synergistic drug interactions whereas negative scores would denote antagonistic drug interactions. A score of zero would indicate no antagonistic or synergistic effect. (D) Flow cytometric analysis of apoptosis in MDA-MB-231 cells. […] Benzethonium chloride and DMSO treated cells were used as positive and negative controls, respectively, for setting the gates. Percentage of total apoptotic cells (early and late stage) from two biological repeats (mean ± SD) is presented. Statistical analysis was performed using Fisher’s exact test comparing the total number of viable and apoptotic cells from two biological repeats. (E) Effect of inhibitors on cellular apoptosis studied using Caspase-3/7Glo assay. […] The caspase-3/7 activity was measured as a luminescence read-out and normalized to the vehicle control, 0.05% (v/v) DMSO. […] GAPDH detection was used as loading control.

[2] = tested on: A375 (BRAF-V600E) 3D spheroids; assay: 3D spheroid formation assay (alamarBlue), A375
Protocol: as §1, §2, §3

[3] = tested on: MDA-MB-231 (KRAS-G13D) 3D spheroids; assay: 3D spheroid formation assay (alamarBlue), MDA-MB-231; details: read-out: IC50 values
Protocol: as §1, §2, §3

[4] = tested on: MDA-MB-231 cells; assay: Flow cytometry-based apoptosis assay (Annexin V-FITC / 7-AAD); details: for apoptotic cells (%): DT-061 10 μM, calmidazolium 5 μM or combination, 24 h
Protocol: MDA-MB-231 cells were grown for 24 h in complete RPMI medium. The next day the cells were treated with inhibitors for 24 h. […] The cells were labelled using the Annexin V-FITC / 7-AAD apoptosis-detection kit (Beckman-Coulter, cat. no. B60224-AB) according to the manufacturer’s instruction.
as §3, with “Negative” for “(A) Heatmap of ATARiS gene sensitivity scores of two KRAS dependent cell lines (NCI-H358 and MDA-MB-231) and a BRAF dependent cell line (A375). Negative”

[5] = tested on: caspase-3/7 activity in MDA-MB-231 cells; assay: Caspase-3/7Glo assay; details: 24 h
Description: as §3, with “Negative” for “(A) Heatmap of ATARiS gene sensitivity scores of two KRAS dependent cell lines (NCI-H358 and MDA-MB-231) and a BRAF dependent cell line (A375). Negative”

[6] = tested on: K-RasG12V (Rluc8-/GFP2-tagged) in HEK-293 EBNA cells; assay: K-RasG12V nanoclustering-BRET assay; details: for effect on the RasG12V-BRET signals (in words): K-RasG12V and H-RasG12V biosensors; for K-RasG12V BRET: compounds 20 μM, FTI-277 1 μM, OphA 2.5 μM, 24 h
[7] = tested on: H-RasG12V (Rluc8-/GFP2-tagged) in HEK-293 EBNA cells; assay: H-RasG12V nanoclustering-BRET assay; details: for H-RasG12V BRET: compounds 20 μM, FTI-277 1 μM, OphA 2.5 μM, 24 h
[8] = tested on: c-MYC in MDA-MB-231 cells; assay: Western blot of c-MYC expression; details: 24 h
[9] = tested on: pERK/ERK in MIA PaCa-2 cells; assay: Western blot of MAPK signaling output (pERK/ERK)
[10] = tested on: MDA-MB-231 cells; assay: 2D cell viability assay (alamarBlue), MDA-MB-231; details: MDA-MB-231, 72 h
[11] = tested on: MIA PaCa-2 cells; assay: 2D cell viability assay (alamarBlue), MIA PaCa-2; details: MIA PaCa-2, 72 h
[12] = tested on: HEK-293 EBNA cells; assay: 2D cell viability assay (alamarBlue), HEK-293 EBNA; details: 72 h
[13] = DT-061 5 μM, calmidazolium 5 μM, combination 5 μM each, staurosporine 1 μM, normalized to DMSO, replicates
[14] = K-RasG12V nanoclustering-BRET dose response (0.1–80 μM; OphA 0.3–20 μM), replicates
[15] = K-RasG12V nanoclustering-BRET, mean
[16] = H-RasG12V nanoclustering-BRET dose response (0.1–80 μM; OphA 0.3–20 μM), replicates
[17] = H-RasG12V nanoclustering-BRET, mean
[18] = 10 μM, MDA-MB-231, replicates N1-N4
[19] = 20 μM, MDA-MB-231, replicates N1-N4, values marked * excluded
[20] = MIA PaCa-2 + EGF, same treatments, mean

Compound | caspase 3/7 activity (fold change) [5, 13] | caspase 3/7 activity (fold change) ([5]; same treatments, mean) | effect on the RasG12V-BRET signals (in words) [6] | DSS3 BRET score [6, 14] | DSS3 BRET score [6, 15] | K-RasG12V BRET ([6]; mean) | DSS3 BRET score [7, 16] | DSS3 BRET score [7, 17] | H-RasG12V BRET ([7]; mean) | c-MYC/Vinculin relative expression [8, 18] | c-MYC/Vinculin relative expression ([8]; 10 μM, Mean (DMSO 1.78)) | c-MYC/Vinculin relative expression [8, 19] | c-MYC/Vinculin relative expression ([8]; 20 μM, Mean (DMSO 1.48)) | normalized pERK/ERK ratio % [9, 20] | further results
O=S(=O)(N[C@@H]1CCC[C@H](N2c3ccccc3Oc3ccccc32)[C@H]1O)c1ccc(OC(F)(F)F)cc1 [DT-061] | 0.9556 fold change and 1.016 fold change | 0.99 fold change | Neither the PP2A activator DT-061, nor Flu had an effect | 0.6 and 1 | 0.8 | 100.53 | 0.2 and 0.4 | 0.3 | 100.52 | 1.352 and 1.842 and 0.8895 and 1.57 | 1.41 | 1.784* and 1.955* and 0.7599 and 0.9549 | 0.86 | 73.35% | IC50 ([1]; Homo sapiens, NCI-H358, 72 h, NCI-H358 3D spheroids, serum free, 3 days treatment, replicates N1, N2): 2400 nM; IC50 ([1]; Homo sapiens, NCI-H358, NCI-H358 3D spheroids, Mean, n = 2): 2650 nM; IC50 ([1]; NCI-H358 3D spheroids, serum free, 3 days treatment, replicates N1, N2): 2890 nM; IC50 ([2]; A375 3D spheroids, serum free, 3 days treatment, replicates N1, N2): 2700 nM; IC50 ([2]; Homo sapiens, A-375, 72 h, A375 3D spheroids, serum free, 3 days treatment, replicates N1, N2): 1500 nM; IC50 ([2]; Homo sapiens, A-375, A375 3D spheroids, Mean, n = 2): 2100 nM; IC50 ([3]; Homo sapiens, MDA-MB-231, 72 h, MDA-MB-231 3D spheroids, serum free, 3 days treatment, replicates N1, N2): 3000 nM; IC50 ([3]; Homo sapiens, MDA-MB-231, MDA-MB-231 3D spheroids, Mean, n = 2): 3050 nM; IC50 ([3]; MDA-MB-231 3D spheroids, serum free, 3 days treatment, replicates N1, N2): 3100 nM; apoptotic cells (%) ([4]; early and late stage, replicates N1, N2): 17.3843% and 7.228%; apoptotic cells (%) ([4]; mean): 12.31%; apoptotic cell population ([4]; MDA-MB-231, 24 h): 12%; K-RasG12V BRET ([6]; A/D plasmid ratio 4/1, individual replicates N1.1-N3.4): 102.439 and 101.315 and 102.277 and 100.953 and 98.6605 and 100.047 and 101.073 and 97.4843; H-RasG12V BRET ([7]; A/D plasmid ratio 4/1, individual replicates N1.1-N2.4): 100.79 and 100.058 and 101.294 and 101.06 and 100.674 and 100.693 and 99.8758 and 99.7238; normalized pERK/ERK ratio % ([9]; MIA PaCa-2 + EGF, 2 h, trametinib 1 μM, AMG-510 1 μM, calmidazolium 20 μM, DT-061 20 μM, combination each 10 μM, fluphenazine mustard 20 μM, replicates N1-N3): 84.4108% and 54.7097% and 80.94%
CN[C@@H]1C[C@H]2O[C@@](C)([C@@H]1OC)n1c3ccccc3c3c4c(c5c6ccccc6n2c5c31)C(=O)NC4 [staurosporine] | 5.7754 fold change and 5.5715 fold change and 6.4904 fold change and 6.254 fold change | 6.02 fold change |  |  |  |  |  |  |  |  |  |  |  |  | 
FC(F)(F)c1ccc2c(c1)N(CCCN1CCN(CCCl)CC1)c1ccccc1S2 [fluphenazine mustard] |  |  | even stronger effect than CMZ | 17.9 and 3.8 and 4.3 and 7 and 12.9 | 9.18 | 72.64 | 13.1 and 5.3 and 9.9 and 9.6 | 9.48 | 65.64 | 0.7502 and 0.7758 and 0.7975 and 1.298 | 0.91 | 1.798* and 1.478 and 1.405 and 0.9115 | 1.26 | 40% | normalized pERK/ERK ratio % [9]: 46.7324% and 34.232% and 39.0258%; 2D monolayer DSS3 ([10]; Mean): 32.27; 2D monolayer DSS3 ([10]; replicates N1-N3): 27.5 and 31.9 and 37.4; 2D monolayer DSS3 ([11]; Mean): 65.73; 2D monolayer DSS3 ([11]; replicates N1-N3): 64.1 and 65.3 and 67.8; 2D monolayer DSS3 ([12]; Mean): 5.4; 2D monolayer DSS3 ([12]; replicates N1-N3): 6.1 and 5.1 and 5
